# Assays:
# [1] = tested on: DU-145 cells; assay: MTT cytotoxicity assay, DU-145 cells; type: cell-based; settings: for SI (DU-145): SI = IC50 of FL83B/IC50 on DU-145; for IC50: Homo sapiens, DU-145, MTT assay, 24 h, 1–100 µM, 95% confidence interval in parentheses
# Source text: (§1) Three malignant cell lines (between passages 10 and 25) obtained from the DMSZ-German Collection of Microorganisms and Cell Cultures GmbH biobank were used: A549 (lung carcinoma), DU-145 (prostate carcinoma), and MCF-7 (breast adenocarcinoma). MCF-7 (ACC-115) and DU-145 (ACC-261) cells were maintained in RPMI 1640 medium (Merck, Darmstadt, Germany) supplemented with 10% FBS (fetal bovine serum, Biowest, Riverside, MO, USA) and 1% antimycotic and antibiotic solution (Biowest, Nuaillé, France). A549 (ACC-107) cells were maintained in DMEM:F12 medium (Merck, Darmstadt, Germany) and also supplemented with 10% FBS (Biowest, Riverside, MO, USA) and a 1% solution of antimycotic and antibiotic (Biowest, Nuaillé, France). FL83B hepatocytes (FL83B; ATCC: CLR-2390) were used as the non-malignant cell line. The cells were cultured in F-12K medium supplemented with FBS 10% (Biowest, Riverside, MO, USA) and 1% solution of antimycotic and antibiotic (Biowest, Nuaillé, France).
# (§2) The effects of sphaerococcenol A and its analogues (1–6) on the viability of malignant cell lines were studied through three distinct assays, 3-(4,5-dimethylthiazol-2-yl)-2,5-diphenyltetrazolium bromide (MTT), lactate dehydrogenase (LDH) activity, and calcein-AM, targeting different cellular biomarkers. Untreated cells with DMSO (<0.2%) were used as control, and saponin (0.4 mg/mL) (Sigma, Darmstadt, Germany) was used as the positive control for cell death.
# (§3) The cells were incubated with compounds at different concentrations (1–100 µM) for 24 h. After the 24 h was over, cells were washed with PBS buffer (pH = 7.4) and incubated for 60 min with the MTT solution (1.2 mM) previously prepared in a fresh medium. The MTT solution was then removed, and 100 µL of dimethyl sulfoxide (DMSO) was added to dissolve the formazan crystals. The results were expressed as the half-maximal inhibitory concentration (IC50) after reading the absorbance at 570 nm using a microplate reader (Synergy H1, BioTek Instruments, USA). The selectivity index (SI) was calculated as the ratio of the IC50 value for a normal cell line to the IC50 value for the corresponding tumor cell line (SI = IC50 of non-malignant cell line/IC50 of malignant cell line), where an SI ≥ 2 of a compound represents a selective toxicity towards malignant cells, while an SI value < 2 is considered generally toxic.
# (§4) The data were obtained from at least three independent experiments (n = 3) carried out in triplicate and presented as mean ± standard error of the mean (SEM). The data were checked for normality and homoscedasticity. […] A one-way analysis of variance (ANOVA) with Dunnett′s multiple comparison of group means was employed to determine significant differences to the control treatment and/or a two-way ANOVA with Bonferroni’s test. All other post hoc analyses were conducted using Tukey’s test. The differences were considered significant at a level of 0.05 (p < 0.05). The inhibitory concentrations (IC50) were determined by means of the equation y = 100/(1 + 10(x − logIC50)). All data were analyzed using the software SPSS v28.0.0.0 (SPSS Inc., Chicago, IL, USA) and GraphPad v8.0.2 (GraphPad Software, Inc., La Jolla, CA, USA).
# [2] = tested on: MCF-7 cells; assay: MTT cytotoxicity assay, MCF-7 cells; type: cell-based; settings: for IC50: MTT assay, 24 h, 1–100 µM, 95% confidence interval in parentheses; for SI (MCF-7): SI = IC50 of FL83B/IC50 on MCF-7
# Source text: as §1, §2, §3, §4
# [3] = tested on: A549 cells; assay: MTT cytotoxicity assay, A549 cells; type: cell-based; settings: for IC50: MTT assay, 24 h, 1–100 µM, 95% confidence interval in parentheses; for SI (A549): SI = IC50 of FL83B/IC50 on A549
# Source text: as §1, §2, §3, §4
# [4] = tested on: FL83B hepatocytes; assay: MTT cytotoxicity assay, non-malignant FL83B hepatocytes; type: cell-based; settings: non-malignant cell line, 24 h, 1–100 µM, 95% confidence interval in parentheses
# Source text: Three malignant cell lines (between passages 10 and 25) obtained from the DMSZ-German Collection of Microorganisms and Cell Cultures GmbH biobank were used: A549 (lung carcinoma), DU-145 (prostate carcinoma), and MCF-7 (breast adenocarcinoma). MCF-7 (ACC-115) and DU-145 (ACC-261) cells were maintained in RPMI 1640 medium (Merck, Darmstadt, Germany) supplemented with 10% FBS (fetal bovine serum, Biowest, Riverside, MO, USA) and 1% antimycotic and antibiotic solution (Biowest, Nuaillé, France). A549 (ACC-107) cells were maintained in DMEM:F12 medium (Merck, Darmstadt, Germany) and also supplemented with 10% FBS (Biowest, Riverside, MO, USA) and a 1% solution of antimycotic and antibiotic (Biowest, Nuaillé, France). FL83B hepatocytes (FL83B; ATCC: CLR-2390) were used as the non-malignant cell line. The cells were cultured in F-12K medium supplemented with FBS 10% (Biowest, Riverside, MO, USA) and 1% solution of antimycotic and antibiotic (Biowest, Nuaillé, France). […]
# as §3, with “After the 24 h was over, cells were washed with PBS buffer (pH = 7.4) and incubated for 60 min with the MTT solution (1.2 mM) previously prepared in a fresh medium. The MTT solution was then removed, and 100 µL of dimethyl sulfoxide (DMSO) was added to dissolve the formazan crystals.” left out
# The data were obtained from at least three independent experiments (n = 3) carried out in triplicate and presented as mean ± standard error of the mean (SEM). […] The inhibitory concentrations (IC50) were determined by means of the equation y = 100/(1 + 10(x − logIC50)). All data were analyzed using the software SPSS v28.0.0.0 (SPSS Inc., Chicago, IL, USA) and GraphPad v8.0.2 (GraphPad Software, Inc., La Jolla, CA, USA).
# [5] = tested on: A549, DU-145, and MCF-7 malignant cells; assay: MTT cytotoxicity assay, stated across the three malignant cell lines; type: cell-based; settings: SI = IC50 of FL83B/IC50 of malignant cell line; over A549, DU-145, MCF-7
# Source text: Three malignant cell lines (between passages 10 and 25) obtained from the DMSZ-German Collection of Microorganisms and Cell Cultures GmbH biobank were used: A549 (lung carcinoma), DU-145 (prostate carcinoma), and MCF-7 (breast adenocarcinoma). MCF-7 (ACC-115) and DU-145 (ACC-261) cells were maintained in RPMI 1640 medium (Merck, Darmstadt, Germany) supplemented with 10% FBS (fetal bovine serum, Biowest, Riverside, MO, USA) and 1% antimycotic and antibiotic solution (Biowest, Nuaillé, France). […]
# as §3, with “After the 24 h was over, cells were washed with PBS buffer (pH = 7.4) and incubated for 60 min with the MTT solution (1.2 mM) previously prepared in a fresh medium. The MTT solution was then removed, and 100 µL of dimethyl sulfoxide (DMSO) was added to dissolve the formazan crystals.” left out
# The data were obtained from at least three independent experiments (n = 3) carried out in triplicate and presented as mean ± standard error of the mean (SEM). […] The inhibitory concentrations (IC50) were determined by means of the equation y = 100/(1 + 10(x − logIC50)). […]
# [6] = tested on: MCF-7 cells; design: method as in PMID 35378501; settings: previous studies; cited from earlier work
# [7] = tested on: U373 cells; design: method as in PMID 20045651; settings: inhibiting the cell entry into the mitosis phase; cited from earlier work
Compound,SI (DU-145) [1],IC50 [2] [µM],SI (MCF-7) [2],"IC50 ([3]; Homo sapiens, A549, 24 h) [µM]",SI (A549) [3],IC50 [4] [µM],IC50 [3] [µM],IC50 [1] [µM],selectivity index across the malignant cell lines [5],events accompanying decrease in MCF-7 cell viability [6],effect on human apoptosis-resistant U373 cells [7],"IC50 ([2]; Homo sapiens, MCF7, 24 h) [µM]"
"CCCSC1CC(=O)[C@@](C)(O)[C@H]2[C@@H]3C=CC[C@@H](C(C)C)[C@@]3(CBr)CC[C@]12C (single isomer, unassigned) [Compound 2]",1.9,70.3,0.7,33.8,1.4,–,–,–,–,–,–,–
"CCCSC1CC(=O)[C@@](C)(O)[C@H]2[C@@H]3C=CC[C@@H](C(C)C)[C@@]3(CBr)CC[C@]12C (single isomer, unassigned) [Compound 3]",2.8,14.3,4.0,–,2.5,56.7,22.5,–,–,–,–,–
"CC(C)[C@@H]1CC=C[C@H]2[C@@H]3[C@](C)(O)C(=O)CC(SCc4ccccc4)[C@@]3(C)CC[C@]12CBr (stereo partly drawn) [Compound 4, (4S,4aS,4bS,8S,8aS,10aS)-1-(Benzylthio)-8a-(bromomethyl)-4-hydroxy-8-isopropyl-4,10a-dimethyl-1,4,4a,4b,7,8,8a,9,10,10a-decahydrophenanthren-3(2H)-one]",0.6,–,1.3,35.5,1.1,40.3,–,70.1,0.6–1.3,–,–,–
CC(C)C1CC=CC2C3C(C)(CCC(O)C3(C)O)CCC21CBr (stereo not drawn) [Compound 5],4.4,–,2.6,–,3.7,–,–,–,–,–,–,–
CC(C)C1CC=CC2C3C(C)(CCC(O)C3(C)O)CCC21CBr (stereo not drawn) [Compound 6],3.1,–,2.9,–,1.9,–,–,–,–,–,–,–
CC(C)[C@@H]1CC=C[C@H]2[C@H]3[C@@](C)(C=CC(=O)[C@@]3(C)O)CC[C@]12CBr [Sphaerococcenol A],10.0,–,5.7,15,2.5,37.4,–,3.75,–,"production of hydrogen peroxide, changes in mitochondrial membrane potential, the stimulation of Caspase-9 activity, and nuclear morphology alterations",cytostatic effect,6.53
